As usually defined, the IC50 is the midpoint of a concentration-inhibition curve.

A value given as a limit tells only on which side of the number the result lay.

The test system of this test is kynurenine production in IFN-γ-treated KATO-III cells. Nature of the test: Inhibitory activity on kynurenine production (Test Example 1). Particulars: Homo sapiens, IFN-γ treatment, culture for 96 hours, read-out: IC50 value, inhibition of kynurenine production. It is filed as cell-based. An outline of the steps: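 KATO-III human gastric cancer cells (2,000/well, RPMI 1640 + 10% FBS) were cultured with compound and IFN-γ (31.25 ng/mL in the cell suspension), DMSO ≤0.1%, for 96 h at 37 °C, 5% CO2. Kynurenine was read at A480 after TCA at 65 °C and p-dimethylaminobenzaldehyde. Inhibition used IFN-γ-treated and untreated DMSO wells as references.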
For the compound `CCCNS(=O)(=O)Nc1nc2ccccc2nc1OC(c1cccnc1)C(C)C` (stereo not shown) [Compound 213, N-{3-[2-methyl-1-(pyridin-3-yl)propoxy]quinoxalin-2-yl}-N′-propyl-sulfuric diamide], the half-maximal inhibitory concentration (IC50) was less than 1000 nM.
Turning to `O=S(=O)(Nc1nc2ccccc2nc1OC(c1cn(CC2CC2)cn1)C(F)(F)F)c1ccccc1Cl` (stereo not shown) [Compound 112, 2-chloro-N-{3-[2,2,2-trifluoro-1-(1-cyclopropylmethyl-1H-imidazol-4-yl)ethoxy]quinoxalin-2-yl}benzenesulfonamide], the concentration for half-maximal inhibition (IC50) is less than 1000 nM.
The value for `Cc1noc(C)c1S(=O)(=O)Nc1nc2ccccc2nc1OC(C1CCOCC1)C(F)(F)F` (stereo not shown) [Compound 119, 3,5-dimethyl-N-{3-[2,2,2-trifluoro-1-(tetrahydro-2H-pyran-4-yl)ethoxy]quinoxalin-2-yl}isoxazole-4-sulfonamide] was less than 1000 nM.
The value for `Cn1cncc1C(Oc1nc2ccccc2nc1NS(=O)(=O)NC1CC1)C(F)(F)F` (stereo not shown) [Compound 287, N-{3-[2,2,2-trifluoro-1-(1-methyl-1H-imidazol-5-yl)ethoxy]-quinoxalin-2-yl}-N′-cyclopropyl-sulfuric diamide] was 1000 to 10000 nM; that for `O=S(=O)(Nc1cc2ccccc2nc1OC(c1cccnc1)C(F)(F)F)c1ccccc1Cl` (stereo not shown) [Compound 360, 2-chloro-N-{2-[2,2,2-trifluoro-1-(pyridin-3-yl)ethoxy]-quinolin-3-yl}benzenesulfonamide] was 1000 to 10000 nM.
The value for `O=S(=O)(Nc1nc2ccccc2nc1OC(c1cc2ccccc2o1)C(F)(F)F)c1ccccc1Cl` (stereo not shown) [Compound 104, 2-chloro-N-{3-[2,2,2-trifluoro-1-(benzofuran-2-yl)ethoxy]-quinoxalin-2-yl}benzenesulfonamide] was less than 1000 nM; that for `O=S(=O)(Nc1nc2ccccc2nc1OC(c1cccnc1)C(F)(F)F)c1ccsc1` (stereo not shown) [Compound 161, N-{3-[2,2,2-trifluoro-1-(pyridin-3-yl)ethoxy]quinoxalin-2-yl}thiophene-3-sulfonamide] was less than 1000 nM.
Take `CCn1cncc1C(Oc1nc2ccccc2nc1NS(=O)(=O)c1ccccc1Cl)C(F)(F)F` (stereo not shown) [Compound 108, 2-chloro-N-{3-[2,2,2-trifluoro-1-(1-ethyl-1H-imidazol-5-yl)ethoxy]quinoxalin-2-yl}benzenesulfonamide]: the half-maximal inhibitory concentration (IC50) was less than 1000 nM.
For `O=S(=O)(Nc1nc2ccccc2nc1OC(C1CCOCC1)C(F)(F)F)NC1CC1` (stereo not shown) [Compound 299, N-{3-[2,2,2-trifluoro-1-(tetrahydro-2H-pyran-4-yl)ethoxy]-quinoxalin-2-yl}-N′-cyclopropyl-sulfuric diamide], the IC50 is less than 1000 nM.
Take `Cc1ccc(C(Oc2nc3ccccc3nc2NS(=O)(=O)c2c(C)nn(C)c2Cl)C(F)(F)F)cn1` (stereo not shown) [Compound 69, 5-chloro-1,3-dimethyl-N-{3-[2,2,2-trifluoro-1-(6-methylpyridin-3-yl)ethoxy]quinoxalin-2-yl}-1H-pyrazole-4-sulfonamide]: the IC50 is less than 1000 nM.
As for `CCCS(=O)(=O)Nc1nc2ccccc2nc1OCc1cnc(C)s1` [Compound 345, N-{3-[(2-methylthiazol-5-yl)methoxy]quinoxalin-2-yl}-propane-1-sulfonamide], the IC50 was in the range of 1000 to 10000 nM.
The value for `CCCS(=O)(=O)Nc1nc2ccccc2nc1OC(C1CCN(C(=O)OC)CC1)C(F)(F)F` (stereo not shown) [Compound 337, N-{3-[2,2,2-trifluoro-1-(1-methoxycarbonylpiperidin-4-yl)-ethoxy]quinoxalin-2-yl}propane-1-sulfonamide] was less than 1000 nM; that for `CC(C)C(Oc1nc2ccccc2nc1NS(=O)(=O)c1cccc(Cl)c1Cl)C(C)C` [Compound 226, 2,3-dichloro-N-[3-(2,4-dimethylpentan-3-yloxy)quinoxalin-2-yl]benzenesulfonamide] was less than 1000 nM; that for `Cc1cccc2nc(NS(=O)(=O)c3ccccc3Cl)c(OC(c3cccnc3)C(F)(F)F)nc12` (stereo not shown) [Compound 266, 2-chloro-N-{5-methyl-3-[2,2,2-trifluoro-1-(pyridin-3-yl)-ethoxy]quinoxalin-2-yl}benzenesulfonamide] was less than 1000 nM.
The value for `Cn1cc(C(Oc2nc3ccccc3nc2NS(=O)(=O)c2cccc(Cl)c2Cl)C(F)(F)F)cn1` (stereo not shown) [Compound 96, 2,3-dichloro-N-{3-[2,2,2-trifluoro-1-(1-methyl-1H-pyrazol-4-yl)ethoxy]quinoxalin-2-yl}benzenesulfonamide] was less than 1000 nM; that for `Cc1ccc(C(Oc2nc3ccccc3nc2NS(=O)(=O)NC2CC2)C(F)(F)F)cn1` (stereo not shown) [Compound 285, N-{3-[2,2,2-trifluoro-1-(6-methylpyridin-3-yl)ethoxy]-quinoxalin-2-yl}-N′-cyclopropyl-sulfuric diamide] was less than 1000 nM.
The value for `O=S(=O)(Nc1nc2ccccc2nc1OC(C1CCOCC1)C(F)(F)F)c1ccccc1Cl` (stereo not shown) [Compound 116, 2-chloro-N-{3-[2,2,2-trifluoro-1-(tetrahydro-2H-pyran-4-yl)ethoxy]quinoxalin-2-yl}benzenesulfonamide] was less than 1000 nM.
Regarding `C#CCNS(=O)(=O)Nc1nc2ccccc2nc1OC(c1cccnc1)C(F)(F)F` (stereo not shown) [Compound 274, N-{3-[2,2,2-trifluoro-1-(pyridin-3-yl)ethoxy]quinoxalin-2-yl}-N′-(2-propynyl)-sulfuric diamide], the IC50 was less than 1000 nM.
The value for `CCCS(=O)(=O)Nc1nc2ccccc2nc1OC(c1cnc(Cl)s1)C(F)(F)F` (stereo not shown) [Compound 196, N-{3-[1-(2-chlorothiazol-5-yl)-2,2,2-trifluoroethoxy]-quinoxalin-2-yl}propane-1-sulfonamide] was less than 1000 nM; that for `CCCS(=O)(=O)Nc1nc2ccccc2nc1O[C@H](c1cnc(C)s1)C(F)(F)F` [Compound 342, (S)—N-{3-[2,2,2-trifluoro-1-(2-methylthiazol-5-yl)ethoxy]-quinoxalin-2-yl}propane-1-sulfonamide] was less than 1000 nM.
The value for `CCCS(=O)(=O)Nc1nc2ccccc2nc1OC(c1ccc(Cl)nc1)C(F)(F)F` (stereo not shown) [Compound 278, N-{3-[1-(6-chloropyridin-3-yl)-2,2,2-trifluoroethoxy]-quinoxalin-2-yl}propane-1-sulfonamide] was less than 1000 nM; that for `Cc1ncc(C(Oc2nc3ccccc3nc2NS(=O)(=O)NC2CC2)C(F)(F)F)s1` (stereo not shown) [Compound 324, N-cyclopropyl-N′-{3-[2,2,2-trifluoro-1-(2-methylthiazol-5-yl)ethoxy]quinoxalin-2-yl}sulfuric diamide] was less than 1000 nM.
On to `O=S(=O)(Nc1nc2ccccc2nc1OC(c1ccccn1)C(F)(F)F)c1ccccc1Cl` (stereo not shown) [Compound 48, 2-chloro-N-{3-[2,2,2-trifluoro-1-(pyridin-2-yl)ethoxy]-quinoxalin-2-yl}benzenesulfonamide], for which the IC50 is less than 1000 nM.
The value for `CCCS(=O)(=O)Nc1nc2ccccc2nc1OC(c1cc2ccccc2n1C)C(F)(F)F` (stereo not shown) [Compound 135, N-{3-[2,2,2-trifluoro-1-(1-methyl-1H-indol-2-yl)ethoxy]-quinoxalin-2-yl}propane-1-sulfonamide] was less than 1000 nM; that for `Cc1ccc(C(Oc2nc3ccccc3nc2NS(=O)(=O)c2c(C)noc2C)C(F)(F)F)cn1` (stereo not shown) [Compound 70, 3,5-dimethyl-N-{3-[2,2,2-trifluoro-1-(6-methylpyridin-3-yl)ethoxy]quinoxalin-2-yl}isoxazole-4-sulfonamide] was less than 1000 nM.
The value for `O=S(=O)(Nc1nc2ccccc2nc1OC(c1cccnc1)C(F)(F)C(F)(F)F)c1cccc(Cl)c1Cl` (stereo not shown) [Compound 46, 2,3-dichloro-N-{3-[3,3,3,2,2-pentafluoro-1-(pyridin-3-yl)-propoxy]quinoxalin-2-yl}benzenesulfonamide] was less than 1000 nM; that for `COc1ccc(C(Oc2nc3ccccc3nc2NS(=O)(=O)c2ccccc2Cl)C(F)(F)F)cc1` (stereo not shown) [Compound 40, 2-chloro-N-{3-[2,2,2-trifluoro-1-(4-methoxyphenyl)ethoxy]-quinoxalin-2-yl}benzenesulfonamide] was less than 1000 nM; that for `N#Cc1cccc(C(Oc2nc3ccccc3nc2NS(=O)(=O)CC2CC2)C(F)(F)F)c1` (stereo not shown) [Compound 309, 1-cyclopropyl-N-{3-[1-(3-cyanophenyl)-2,2,2-trifluoroethoxy]quinoxalin-2-yl}methanesulfonamide] was less than 1000 nM.
The value for `CC(CN1CCOCC1)Oc1nc2ccccc2nc1NS(=O)(=O)c1ccccc1Cl` (stereo not shown) [Compound 230, 2-chloro-N-[3-(1-morpholinopropan-2-yloxy)quinoxalin-2-yl]-benzenesulfonamide] was less than 1000 nM; that for `CCCS(=O)(=O)Nc1nc2ccccc2nc1OC(c1cccnc1)C(C)C` (stereo not shown) [Compound 210, N-{3-[2-methyl-1-(pyridin-3-yl)propoxy]quinoxalin-2-yl}-propane-1-sulfonamide] was less than 1000 nM.
In the case of `O=S(=O)(Nc1nc2ccccc2nc1OC(c1cccnc1)C(F)(F)F)c1cccc(Cl)c1` (stereo not shown) [Compound 181, 3-chloro-N-{3-[2,2,2-trifluoro-1-(pyridin-3-yl)ethoxy]-quinoxalin-2-yl}benzenesulfonamide], the IC50 is less than 1000 nM.
The value for `CCCS(=O)(=O)Nc1nc2ccccc2nc1OC(c1cncs1)C(F)(F)F` (stereo not shown) [Compound 276, N-{3-[2,2,2-trifluoro-1-(thiazol-5-yl)ethoxy]quinoxalin-2-yl}propane-1-sulfonamide] was less than 1000 nM; that for `O=S(=O)(Nc1nc2ccccc2nc1OC(c1ccc(Cl)nc1)C(F)(F)F)NC1CC1` (stereo not shown) [Compound 288, N-{3-[1-(6-chloropyridin-3-yl)-2,2,2-trifluoroethoxy]-quinoxalin-2-yl}-N′-cyclopropyl-sulfuric diamide] was less than 1000 nM; that for `Cc1ccccc1S(=O)(=O)Nc1nc2ccccc2nc1OC(c1cccnc1)C(F)(F)F` (stereo not shown) [Compound 156, 2-methyl-N-{3-[2,2,2-trifluoro-1-(pyridin-3-yl)ethoxy]-quinoxalin-2-yl}benzenesulfonamide] was less than 1000 nM.

The record behind these values is US8673908B2, “Kynurenine production inhibitor” (Kyowa Hakko Kirin Co., Ltd., priority 2008, dated 2014).
